Source: patent publication US4551479A, “Compounds with anti-convulsive properties” (Akzo N.V., priority 1983, dated 1985)
Where a name gives a salt, the structure may show the parent alone. Read-outs that look alike come from different tables or passages of the source.

How the values were obtained:
[1] = tested on: Pentylenetetrazole (PTZ) cramp condition; test: PTZ (pentylenetetrazole) test (anti-convulsive properties); type: in vivo; conditions: ip, read-out: Anti-convulsive properties, PTZ test ED50 i.p.
Text: ^(2) Pentylenetetrazole (i.e. PTZ) directly activates the nerve
endings, leading to a cramp condition.

[2] = tested on: tonic convulsion; test: Electroshock test (anti-convulsive properties); type: in vivo; conditions: ip, read-out: Anti-convulsive properties, Electroshock test ED200 i.p.
Text: ^(1) The ED200 is the dose of the test compound (in mg/kg) which
necessitates a 100% increase of the current intensity to bring about a
tonic convulsion in 50% of the test animals.

[3] = tested on: benzodiazepine receptors; test: Antagonism of anti-convulsive effect by benzodiazepine antagonist Ro 15-1788; type: in vivo; conditions: administration of Ro 15-1788
[4] = Rotarod (neurotoxicity and sedation); conditions: ip
[5] = Shuttle box (neurotoxicity and sedation); conditions: ip

Compound | ED50 [1] | ED200 [2] | Effect of benzodiazepine antagonist (Ro 15-1788) on the anti-convulsive effect [3] | TD50 [4] | TD50 [5] | ED50 ([1]; pentylenetetrazole) | ED200 ([2]; dose necessitating a 100% increase of current intensity to bring about tonic convulsion in 50% of test animals)
CN1C(=O)CN=C(c2ccccc2)c2cc(Cl)ccc21 [diazepam] | 0.5 mg/kg | 14 mg/kg | completely counteracted |  |  |  | 
CN(C)C1C2C=CCC1c1ccccc1C2 (stereo not drawn) | 10 mg/kg | 11 mg/kg |  | 70 mg/kg | > 46 mg/kg |  | 
O=C1NC(=O)C(c2ccccc2)(c2ccccc2)N1 [diphenyl hydantoin] |  |  |  | 100 mg/kg | 100 mg/kg | 22 mg/kg | 15 mg/kg
CCCC(CCC)C(=O)O [sodium salt of valproic acid] | 30 mg/kg | 180 mg/kg |  | 230 mg/kg | 350 mg/kg |  | 
